From patent US11225491B2, “Thiazolo-pyrimidine HIV-1 reverse transcriptase inhibitor, preparation method therefor, and uses thereof” (priority 2018, dated 2022)
Where two headings read alike, the source gives them in different places.

Key:
[1] = system: WT HIV-1 strain (IIIB); test: Anti-HIV activity in MT-4 cells, MTT method, WT strain IIIB; type: cell-based; details: for SI IIIB: selectivity index, ratio of CC50/EC50, strain IIIB
[2] = system: HIV-1 K103N+Y181C (RES056); test: microbe, parasite or virus in culture; type: cell-based; details: for EC50: Human immunodeficiency virus 1, MT4, read-out: EC50 RES056; for SI RES056: selectivity index, ratio of CC50/EC50, strain RES056
[3] = system: mutant HIV-1 strain L100I; test: microbe, parasite or virus in culture; type: cell-based; details: Human immunodeficiency virus 1, MT4, read-out: EC50 L100I
[4] = system: mutant HIV-1 strain Y181C; test: microbe, parasite or virus in culture; type: cell-based; details: Human immunodeficiency virus 1, MT4, read-out: EC50 Y181C
[5] = system: mutant HIV-1 strain Y188L; test: microbe, parasite or virus in culture; type: cell-based; details: Human immunodeficiency virus 1, MT4, read-out: EC50 Y188L
[6] = system: mutant HIV-1 strain E138K; test: microbe, parasite or virus in culture; type: cell-based; details: Human immunodeficiency virus 1, MT4, read-out: EC50 E138K
[7] = system: mutant HIV-1 strain F227L + V106A; test: microbe, parasite or virus in culture; type: cell-based; details: Human immunodeficiency virus 1, MT4, read-out: EC50 F227L + V106A
[8] = in vitro; details: human
[9] = Cytotoxicity in mock-infected MT-4 cells, MTT method; details: human
[10] = system: mutant HIV-1 strain K103N; test: microbe, parasite or virus in culture; type: cell-based; details: Human immunodeficiency virus 1, MT4, read-out: EC50 K103N
[11] = Human immunodeficiency virus 1, MT4, 50% protection of MT-4 cell cultures against HIV-1-induced cytopathic effect, MTT method, strain IIIB, read-out: EC50 IIIB

Compound: Cc1cc(C#N)cc(C)c1Oc1nc(Nc2ccc(C#N)cc2)nc(N)c1Br [ETR, Etravirine, reference compound]
- EC50 [1, 11]: 5.1 ± 0.8 nM
- EC50 [2]: 45.4 ± 15.5 nM
- EC50 [3]: 6 ± 1.5 nM
- EC50 [4]: 14.5 ± 8.2 nM
- EC50 [5]: 20.4 ± 8.6 nM
- EC50 [6]: 9.7 ± 6.9 nM
- EC50 [7]: 19.7 ± 7.3 nM
- CC50 at 5 days [8]: > 4590 nM

Compound: Cc1ccnc2c1NC(=O)c1cccnc1N2C1CC1 [NVP, Nevirapine, reference compound]
- EC50 ([1]; Human immunodeficiency virus 1, IIIB, MT4, read-out: EC50 IIIB): 163 ± 41.2 nM
- EC50 [2]: > 9510 nM
- CC50 at 5 days [9]: > 9510 nM

Compound: Cc1cc(C#N)cc(C)c1Oc1nc(NC2CCN(Cc3ccc(S(N)(=O)=O)cc3)CC2)nc2ncsc12 [SZ1]
- EC50 [1, 11]: 2.2 ± 0.9 nM
- SI IIIB [1]: 11071
- EC50 [2]: 26.1 ± 1.5 nM
- SI RES056 [2]: 961
- EC50 [3]: 7.8 ± 0.2 nM
- EC50 [10]: 3.9 ± 1.9 nM
- EC50 [4]: 6.7 ± 1.2 nM
- EC50 [5]: 11.4 ± 2.3 nM
- EC50 [6]: 6.5 ± 1.5 nM
- EC50 [7]: 18.8 ± 4.5 nM
- CC50 at 5 days [8]: 25100 ± 749 nM

Compound: CNS(=O)(=O)c1ccc(CN2CCC(Nc3nc(Oc4c(C)cc(C#N)cc4C)c4scnc4n3)CC2)cc1 [SZ2]
- EC50 [1, 11]: 4.8 ± 0.1 nM
- SI IIIB [1]: 2828
- EC50 [2]: 19.4 ± 13.1 nM
- SI RES056 [2]: 710
- EC50 [3]: 8.7 ± 0.3 nM
- EC50 [10]: 5.1 ± 1 nM
- EC50 [4]: 7.3 ± 0.1 nM
- EC50 [5]: 14 ± 2 nM
- EC50 [6]: 9.2 ± 0.7 nM
- EC50 [7]: 22.6 ± 3.8 nM
- CC50 at 5 days [8]: 13700 ± 3470 nM

Compound: Cc1cc(C#N)cc(C)c1Oc1nc(NC2CCN(Cc3ccc(S(=O)(=O)NC4CC4)cc3)CC2)nc2ncsc12 [SZ3]
- EC50 [1, 11]: 5 ± 0.2 nM
- SI IIIB [1]: 4564
- EC50 [2]: 41.3 ± 5.2 nM
- SI RES056 [2]: 561
- CC50 at 5 days [8]: 23200 ± 4520 nM

Compound: Cc1cc(C#N)cc(C)c1Oc1nc(NC2CCN(Cc3ccc(S(=O)(=O)N4CCOCC4)cc3)CC2)nc2ncsc12 [SZ4]
- EC50 [1, 11]: 3.7 ± 0.8 nM
- SI IIIB [1]: 4665
- EC50 [2]: 94.4 ± 0.5 nM
- SI RES056 [2]: 187
- CC50 at 5 days [8]: 17600 ± 2370 nM

Compound: Cc1cc(C#N)cc(C)c1Oc1nc(NC2CCN(Cc3ccc(C(N)=O)cc3)CC2)nc2ncsc12 [SZ5]
- EC50 [1, 11]: > 15600 nM
- SI IIIB [1]: <1
- EC50 [2]: > 15600 nM
- SI RES056 [2]: <1
- CC50 at 5 days [8]: 15500 ± 2840 nM

Compound: Cc1cc(C#N)cc(C)c1Oc1nc(NC2CCN(Cc3ccc(S(C)(=O)=O)cc3)CC2)nc2ncsc12 [SZ6, 3,5-dimethyl-4-((5-((1-(4-(methylsulfonyl)benzyl)piperidin-4-yl)amino)thiazolo[4,5-d]pyrimidin-7-yl)oxy)benzonitrile]
- EC50 [1, 11]: 2.2 ± 0.6 nM
- SI IIIB [1]: 4816
- EC50 [2]: 27.4 ± 0.3 nM
- SI RES056 [2]: 400
- EC50 [3]: 3.2 ± 0.7 nM
- EC50 [10]: 3.8 ± 2.8 nM
- EC50 [4]: 7 ± 0.9 nM
- EC50 [5]: 10.7 nM
- EC50 [6]: 6.1 ± 1.1 nM
- EC50 [7]: 15.4 ± 2.3 nM
- CC50 at 5 days [8]: 10900 ± 2750 nM

Compound: Cc1cc(C#N)cc(C)c1Oc1nc(NC2CCN(Cc3ccncc3)CC2)nc2ncsc12 [SZ7, 3,5-dimethyl-4-((5-((1-(pyridin-4-ylmethyl)piperidin-4-yl)amino)thiazolo[4,5-d]pyrimidin-7-yl)oxy)benzonitrile]
- EC50 [1, 11]: 1.8 ± 0.4 nM
- SI IIIB [1]: 16818
- EC50 [2]: 24.7 ± 1.9 nM
- SI RES056 [2]: 1227
- EC50 [3]: 5.6 ± 2.2 nM
- EC50 [10]: 1.9 ± 0.6 nM
- EC50 [4]: 5.8 ± 2.2 nM
- EC50 [5]: 7.7 ± 1 nM
- EC50 [6]: 5.5 ± 1.2 nM
- EC50 [7]: 32.9 ± 23.8 nM
- CC50 at 5 days [8]: 30300 ± 760 nM

Compound: Cc1cc(C#N)cc(C)c1Oc1nc(NC2CCN(Cc3ccc([N+](=O)[O-])cc3)CC2)nc2ncsc12 [SZ8, 3,5-dimethyl-4-((5-((1-(4-nitrobenzyl)piperidin-4-yl)amino)thiazolo[4,5-d]pyrimidin-7-yl)oxy)benzonitrile]
- EC50 [1, 11]: 3.4 ± 0.2 nM
- SI IIIB [1]: 1482
- EC50 [2]: 129 ± 4.5 nM
- SI RES056 [2]: 40
- CC50 at 5 days [8]: 5170 ± 134 nM

Compound: Cc1cc(C#N)cc(C)c1Oc1nc(NC2CCN(Cc3cccc(C(N)=O)c3)CC2)nc2ncsc12 [SZ9]
- EC50 [1, 11]: 1.3 nM
- SI IIIB [1]: 20099
- EC50 [2]: 559 ± 8.5 nM
- SI RES056 [2]: 49
- CC50 at 5 days [8]: 27300 ± 965 nM

Compound: Cc1cc(C#N)cc(C)c1Oc1nc(NC2CCN(Cc3ccc(S(N)(=O)=O)cc3)CC2)nc2scnc12 [TZ1]
- EC50 [1, 11]: 1.6 ± 0.2 nM
- SI IIIB [1]: 14194
- EC50 [2]: 18.3 ± 2.3 nM
- SI RES056 [2]: 1265
- EC50 [3]: 9.6 ± 1.5 nM
- EC50 [10]: 1.9 ± 0.1 nM
- EC50 [4]: 6.5 ± 1 nM
- EC50 [5]: 10.8 ± 0.6 nM
- EC50 [6]: 7.9 ± 0.1 nM
- EC50 [7]: 16 ± 4.6 nM
- CC50 at 5 days [8]: 23200 ± 1750 nM

Compound: Cc1cc(C#N)cc(C)c1Oc1nc(NC2CCN(Cc3ccc(C(N)=O)cc3)CC2)nc2scnc12 [TZ2]
- EC50 [1, 11]: 1.6 ± 0.1 nM
- SI IIIB [1]: 16412
- EC50 [2]: 28.1 ± 13 nM
- SI RES056 [2]: 965
- EC50 [3]: 6.3 ± 2.8 nM
- EC50 [10]: 1.6 ± 0.4 nM
- EC50 [4]: 5.1 ± 0.1 nM
- EC50 [5]: 7.2 ± 0.2 nM
- EC50 [6]: 5.2 ± 0.8 nM
- EC50 [7]: 20.3 ± 2.6 nM
- CC50 at 5 days [8]: 27100 ± 1300 nM

Compound: Cc1cc(C#N)cc(C)c1Oc1nc(NC2CCN(Cc3ccc(S(C)(=O)=O)cc3)CC2)nc2scnc12 [TZ3, 3,5-dimethyl-4-((5-((1-(4-(methylsulfonyl)benzyl)piperidin-4-yl)amino)thiazolo[5,4-d]pyrimidin-7-yl)oxy)benzonitrile]
- EC50 [1, 11]: 2.3 ± 0.7 nM
- SI IIIB [1]: 6212
- EC50 [2]: 18.1 ± 1.1 nM
- SI RES056 [2]: 791
- EC50 [3]: 5.6 ± 0.7 nM
- EC50 [10]: 3.3 ± 0.3 nM
- EC50 [4]: 7.5 ± 0.6 nM
- EC50 [5]: 7.1 ± 0.2 nM
- EC50 [6]: 6.6 ± 0.1 nM
- EC50 [7]: 15.2 ± 3.4 nM
- CC50 at 5 days [8]: 14300 ± 5500 nM

Compound: Cc1cc(C#N)cc(C)c1Oc1nc(NC2CCN(Cc3ccncc3)CC2)nc2scnc12 [TZ4, 3,5-dimethyl-4-((5-((1-(pyridin-4-ylmethyl)piperidin-4-yl)amino)thiazolo[5,4-d]pyrimidin-7-yl)oxy)benzonitrile]
- EC50 [1, 11]: 2.7 nM
- SI IIIB [1]: 10447
- EC50 [2]: 26.8 ± 0.1 nM
- SI RES056 [2]: 1074
- EC50 [3]: 13.7 ± 7.1 nM
- EC50 [10]: 3.3 ± 2.3 nM
- EC50 [4]: 5.8 ± 0.1 nM
- EC50 [5]: 6.6 ± 1 nM
- EC50 [6]: 6.5 ± 0.3 nM
- EC50 [7]: 30.9 ± 6.2 nM
- CC50 at 5 days [8]: 28700 ± 489 nM

Compound: Cc1cc(C#N)cc(C)c1Oc1nc(NC2CCN(Cc3ccc([N+](=O)[O-])cc3)CC2)nc2scnc12 [TZ5, 3,5-dimethyl-4-((5-((1-(4-nitrobenzyl)piperidin-4-yl)amino)thiazolo[5,4-d]pyrimidin-7-yl)oxy)benzonitrile]
- EC50 [1, 11]: 8.2 ± 1.9 nM
- SI IIIB [1]: 687
- EC50 [2]: 126 ± 16 nM
- SI RES056 [2]: 45
- CC50 at 5 days [8]: 5680 ± 423 nM

Compound: Cc1cc(C#N)cc(C)c1Oc1nc(NC2CCN(Cc3cccc(C(N)=O)c3)CC2)nc2scnc12 [TZ6]
- EC50 [1, 11]: 3 ± 0.6 nM
- SI IIIB [1]: 9565
- EC50 [2]: 222 ± 47 nM
- SI RES056 [2]: 130
- CC50 at 5 days [8]: 28800 ± 634 nM
